This note sets out measurements from paper PMC9304322, “Targeting retinoic acid receptor alpha-corepressor interaction activates chaperone-mediated autophagy and protects against retinal degeneration” (Nature Communications, 2022).

In series [1] the test system is NIH3T3 cells control (empty vector) or knock-down (KD) for N-CoR1. In words: CMA activity in NIH3T3 control or knock-down for N-CoR1. The series is classed as cell-based, mouse. Also noted: CMA activity: unit not given here. Conditions: for activating effect on CMA upon knock-down of NCOR1: 20μM for 24 h; for CMA activity: Fig. 2h, individual replicate values. Here is the method:
NIH3T3 mouse fibroblasts (CRL-1658), CaCo2 cells human colorectal adenocarcinoma (HTB-3), and the N2a neuroblastoma cell line (CCL-131) were obtained from the American Type Culture Collection and were validated by genomic PCR. Primary human fibroblasts (GM01651) were from Coriell Repository. Cells were cultured to full confluence in a 37 °C incubator with 5% CO2 in complete Dulbecco’s modified Eagle’s medium (DMEM, Sigma #D5030) supplemented with 10% heat-inactivated newborn calf serum (HyClone #SH30401.02HI), 1% penicillin/streptomycin/fungizone (Invitrogen, #10072322). All the cell lines were tested for mycoplasma contamination using DNA staining protocol with Hoechst 33258 dye and none of them was found positive. Knock-down of Ncor1 was done using lentiviral mediated shRNA (SHCLNG-NM_011308) from the Sigma Mission library following standard procedures. The efficiency of knock-down was tested by immunoblot. Cell viability was measured using the CellTiter-Blue kit (Promega, #G9241) 24 h after the addition of the different stressors according to the manufacturer’s instructions. All cell lines were validated by genomic PCR.
Cells were transduced with lentivirus carrying the KFERQ-PS-Dendra reporter as before. Cells were photoactivated by exposure to a 3.5 mA (current constant) light emitting diode (LED: Norlux, 405 nm) for 3 min and then plated in glass-bottom 96 well plates. At the desired times, cells were fixed with 4% PFA and imaged using high-content microscopy (Operetta system, Perkin Elmer). Images were quantified using the manufacturer’s software in a minimum of 1,200 cells in 9 independent fields per well. […] This was particularly important in the case of primary human cells where the efficiency of transduction was ~65%. To avoid confounding effects for drug-induced changes in cell volume or adherence to the plate that could bring a fraction of the cells per field outside of focus, we set a threshold to count only […] that have at least 1/10 of the average number of […] detected in the untreated wells for each cell type (3–4 puncta/cell in the case of NIH3T3 and N2a cells and 5 puncta/cell in primary human fibroblasts).

Series [2] is described as follows: In vitro stability in human liver microsomes. The series is classed as in vitro ADME. The conditions noted are these: in words. Here is the method:
In vitro solubility in the following conditions A) HBSS/HEPES 10 mM/BSA 0.1% pH 6 B) HBSS/HEPES 10 mM/BSA 0.1% pH 7.4 C) TRIS/BSA 0.1% PBS (pH 7.4 and at indicated doses were measured by Nephelometry using the NEPHELOstar Galaxy apparatus (BMG Lab Technologies). In vitro stability in human, mouse and rat liver microsomes and permeability using a bidirectional permeability assay with CaCo-2 cells (pH 6.5/7.4) assays were performed with standard methodology and analyzed by LC-MS/MS. at SIMM-SERVIER joint Biopharmacy Laboratory. ADME properties for CA39 and CA77 were predicted by QikProp (Schrödinger, LLC, Releases 2016-2020) software.
(In general: Liver microsomes are a subcellular fraction often used to study metabolism.)

In another series the test system is KFERQ-Dendra mice. Description: CMA activity in tissues of KFERQ-Dendra mice.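 As to % cells: percentage of blood CD4+ T cells with more than 3 CMA puncta per cell.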 Type of series: in vivo, mouse. Also noted: Fig. 3g value / Fig. 3g value, Mean 2: unit not given here. The conditions noted are these: for Fig. 3g value, Mean 2: group mean of the test details, n 6; for Fig. 3g value / % cells: single replicate values; for % cells: Fig. 3d; for fluorescent Dendra+ puncta in liver: KFERQ-Dendra mice, i.p. 30 mg/kg bw daily for 3 days; for number of Dendra+ puncta per cell in retina (Fig. 4f), average / number of Dendra+ puncta per cell in retina (Fig. 4f), individual fields: flat-mounted retinas; for number of Dendra+ puncta per MAP2 + cell (Fig. 4b), individual sections: hippocampus (CA1 region), i.p. 30 mg/kg bw daily for three consecutive days. Here is the method:
C57BL/6 J mice wild-type (WT) and homozygous for the Pde6 mutation (rd10 mouse model of retinal degeneration) were obtained from The Jackson Laboratory and experiments were performed at the age indicated in each part of the study. C57BL/6 KFERQ-Dendra mice were generated by back-crossing FVB KFERQ-Dendra mice with wild-type C57BL/6 mice for 8 generations. Both male and female animals were used in this study in equally distribution groups. However, results from both sexes were pooled, because of absence of significant differences in any of the parameters analyzed after statistical analysis with a mixed model of two-way ANOVA sex and treatment as independent variables and the corresponding measure as dependent variable. All animals were housed in a barrier-controlled facility (19–23 °C 30–60% relative humidity; 12 h light/dark cycle) with ad libitum access to standard chow pellets (protein 19 gm%/carbohydrate 67 gm%/fat 4 gm%) and water. For animal administration of CA compounds, a formula containing 30% PEG 400 (Sigma, #8.0745), 65% of 5% glucose solution, 5% Tween 80 (Sigma, #P1754) was used to dissolve them. CA compounds were prepared freshly by adding 5% DMSO and sonicating for 1 h. Treatment of KFERQ-Dendra mice with the CA compounds was done at 4 months of age by i.p. daily injection of 30 mg/kg bw or vehicle for three consecutive days and tissues collected 6 h after the last injection. In the case of rd10 mice, animals were daily injected from P18 to P25 with CA77 (40 mg/kg bw). In the case of intravitreal administration, a single intravitreal injection was applied at P18 with CA77 (40 µM) in DMSO/PBS and the contralateral eye was injected with PBS and DMSO at same concentration. At P26, mice were sacrificed and eyes fixed overnight with 4% PFA (Sigma, #P6148) in PBS at 4 °C for immunofluorescence or retinas dissected and immediately frozen for biochemistry. Distribution of animals in the vehicle or treatment group was done randomly. ICR (CD-1) outbred 3 months old male mice from ENVIGO were used for the pharmacokinetic studies (see pharmacokinetic section for housing and handling details). All animal studies and procedures complied with ethical regulations, were performed in accordance with the European Union guidelines and the ARVO Statement for the Use of Animals in Ophthalmic and Vision Research and were approved by the Institutional Animal Care and Use Committee at the Albert Einstein College of Medicine, the CSIC Bioetica Comite and approved by the Comunidad de Madrid, PROEX232/17.
All mice were perfused with PBS. Livers were post-fixed overnight at 4 °C in picric acid fixation buffer (2% formaldehyde, 0.2% picric acid in PBS, pH7.0) and then washed with 70% ethanol, followed by two washes in PBS. Livers were immersed in 30% sucrose and then embedded in OCT for sectioning in a cryostat (Leica CM3050 S). After airdrying for 30 min, sections were stored at −20 °C until use. Brains were post-fixed for 12 h in 4% paraformaldehyde, cryoprotected in PBS containing 20% sucrose before being frozen by immersion in a cold isopentane bath (−50 °C), and stored immediately at −80 °C until sectioning. Brains were also sectioned in a cryostat at −20 °C in coronal 40 μm-thick free-floating sections. Immunostainings were performed after permeabilization of the sections with 0.3% Triton X-100 in PBS for 30 minutes at RT followed by blocking (10% normal goat serum, 2% Triton X-100 in PBS) and subsequent incubation with the primary and appropriate anti-species secondary antibody. Cell nuclei were stained using Hoechst (Life Technologies, 33342) at 1:5000 for 30 s (in retina) or 10 min (in brain sections) prior to mounting. Images were acquired with a Leica confocal TCS-SP8 (Leica Microsystem) using an HCX Plan Apo CS ×63.0 1.40 NA oil objective and the Leica Application Suite X (LAS X). Puncta was quantified using ImageJ Software (NIH)[38] after thresholding. […]

Where [3] appears, read: i.p. 30 mg/kg bw daily for three days.
[4] abbreviates: i.p. 30 mg/kg bw daily for three days, 30 mg/kg.

Molecules are shown by their SMILES. Values joined by “and” are separate entries in the source; they are usually repeats but may differ in a detail not shown here. Equal entries are not always repeated.

Regarding `CC(=O)Nc1ccc(C2=Nc3ccc(Cl)cc3OC2)cc1` [CA77], in series [1], the “activating effect on CMA upon knock-down of NCOR1” value is listed as “completely ablated”. Further, in series [1] (Ctr cells), the CMA activity was 22.4 and 17.9 and 26.0. The CMA activity in series [1] (NCOR(-) (NCoR1 KD) cells) is 4.3 and 4.0 and 4.8. Further, the “metabolic stability with human liver microsomes” value in series [2] is reported as “high to intermediate”. Further, in the series on KFERQ-Dendra mice, the “Fig. 3g value, Mean 2” value stood at 17.33; the “Fig. 3g value” was 10 and 12 and 22 and 23 and 19 and 18; the “% cells” value is 9% and 28% and 12% and 18% and 22% and 17% and 32% and 26%; the “fluorescent Dendra+ puncta in liver” value is “significant increase in the number of fluorescent Dendra^+ puncta”. Moreover, the “number of Dendra+ puncta per cell in retina (Fig. 4f), average” value in the series with KFERQ-Dendra mice (setting [3]) is listed as 1.396 puncta/cell. Further, the “number of Dendra+ puncta per cell in retina (Fig. 4f), individual fields” value in the series with KFERQ-Dendra mice (setting [4]) is 1.250 puncta/cell and 1.040 puncta/cell and 1.583 puncta/cell and 1.063 puncta/cell and 1.100 puncta/cell and 1.667 puncta/cell and 1.375 puncta/cell and 1.846 puncta/cell and 1.000 puncta/cell and 1.750 puncta/cell and 1.684 puncta/cell. Moreover, the “number of Dendra+ puncta per MAP2 + cell (Fig. 4b), individual sections” value with KFERQ-Dendra mice (30 mg/kg) is 22 and 17 and 15 and 26 and 12 and 18 and 9 and 5.
Consider `Clc1ccc2c(c1)OCC(c1ccc(-c3ccccc3)cc1)=N2` [CA39], for which, in series [1], the “activating effect on CMA upon knock-down of NCOR1” value is “completely ablated”. The CMA activity in series [1] (Ctr cells) was 28.3 and 30.0 and 31.5. The CMA activity in series [1] (NCOR(-) (NCoR1 KD) cells) was 3.7 and 5.0 and 5.1. In series [2], the “metabolic stability with human liver microsomes” value is “high to intermediate”. For the same compound, in the series on KFERQ-Dendra mice, the “Fig. 3g value, Mean 2” value is on record as 20; the “Fig. 3g value” was 16.28 and 30.33 and 23.44 and 14.29 and 16.39 and 19.29; the “% cells” value was 21% and 39% and 30% and 21.8% and 22.6% and 12.2% and 9.5% and 24.2% and 12.8% and 21.2%; the “fluorescent Dendra+ puncta in liver” value is “significant increase in the number of fluorescent Dendra^+ puncta”. Moreover, the “number of Dendra+ puncta per cell in retina (Fig. 4f), average” value in the series on KFERQ-Dendra mice (setting [3]) turned out to be 1.185 puncta/cell. Moreover, in the series with KFERQ-Dendra mice (setting [4]), the “number of Dendra+ puncta per cell in retina (Fig. 4f), individual fields” value was 1.154 puncta/cell and 0.857 puncta/cell and 0.867 puncta/cell and 0.700 puncta/cell and 1.556 puncta/cell and 1.350 puncta/cell and 1.500 puncta/cell and 0.737 puncta/cell and 1.385 puncta/cell and 0.958 puncta/cell and 0.950 puncta/cell and 2.000 puncta/cell and 1.182 puncta/cell and 1.400 puncta/cell. Also, the “number of Dendra+ puncta per MAP2 + cell (Fig. 4b), individual sections” value in the series with KFERQ-Dendra mice (30 mg/kg) is 20 and 22 and 18 and 25 and 16 and 15 and 12 and 10. Moreover, in the series with KFERQ-Dendra mice (midbrain substantia nigra, i.p. 30 mg/kg bw daily for three days, 30 mg/kg), the “number of Dendra+ puncta in individual TH+ cells (Fig. S8d)” value was 27 and 32 and 4 and 2 and 55 and 34 and 23 and 3 and 21 and 1 and 48 and 38 and 6 and 39 and 22 and 45 and 12 and 35.
